Source: ChEMBL document CHEMBL4507320, “Data for DCP probe NVS-MALT1” (2021)

Tests used:
[1] = tested on: Tyrosine-protein kinase ABL1 (Homo sapiens), P00519 [H396P]; conditions: Compound concentration 1000.0 nM
[2] = target: Tyrosine-protein kinase ABL2 (Homo sapiens) (UniProt P42684); conditions: Compound concentration 1000.0 nM
[3] = target: Activin receptor type-2B (Homo sapiens) (UniProt Q13705); conditions: Compound concentration 1000.0 nM
[4] = target: Activin receptor type-1-like (Homo sapiens) (UniProt P37023); conditions: Compound concentration 1000.0 nM
[5] = target: RAC-beta serine/threonine-protein kinase (Homo sapiens) (UniProt P31751); conditions: Compound concentration 1000.0 nM
[6] = target: RAC-gamma serine/threonine-protein kinase (Homo sapiens) (UniProt Q9Y243); conditions: Compound concentration 1000.0 nM
[7] = target: Mitogen-activated protein kinase kinase kinase 5 (Homo sapiens) (UniProt Q99683); conditions: Compound concentration 1000.0 nM
[8] = target: BMP-2-inducible protein kinase (Homo sapiens) (UniProt Q9NSY1); conditions: Compound concentration 1000.0 nM
[9] = target: Bone morphogenetic protein receptor type-2 (Homo sapiens) (UniProt Q13873); conditions: Compound concentration 1000.0 nM
[10] = target: Mitotic checkpoint serine/threonine-protein kinase BUB1 (Homo sapiens) (UniProt O43683); conditions: Compound concentration 1000.0 nM
[11] = target: Calcium/calmodulin-dependent protein kinase type 1G (Homo sapiens) (UniProt Q96NX5); conditions: Compound concentration 1000.0 nM
[12] = target: Dual specificity protein kinase CLK4 (Homo sapiens) (UniProt Q9HAZ1); conditions: Compound concentration 1000.0 nM
[13] = target: Serine/threonine-protein kinase DCLK2 (Homo sapiens) (UniProt Q8N568); conditions: Compound concentration 1000.0 nM
[14] = tested on: Epidermal growth factor receptor (Homo sapiens), P00533 [G719S]; conditions: Compound concentration 1000.0 nM
[15] = target: Receptor tyrosine-protein kinase erbB-3 (Homo sapiens) (UniProt P21860); conditions: Compound concentration 1000.0 nM
[16] = tested on: Receptor-type tyrosine-protein kinase FLT3 (Homo sapiens), P36888 [UNDEFINED MUTATION]; conditions: Compound concentration 1000.0 nM
[17] = target: Serine/threonine-protein kinase haspin (Homo sapiens) (UniProt Q8TF76); conditions: Compound concentration 1000.0 nM
[18] = target: Mitogen-activated protein kinase kinase kinase kinase 1 (Homo sapiens) (UniProt Q92918); conditions: Compound concentration 1000.0 nM
[19] = target: Insulin-like growth factor 1 receptor (Homo sapiens) (UniProt P08069); conditions: Compound concentration 1000.0 nM
[20] = target: Mitogen-activated protein kinase 10 (Homo sapiens) (UniProt P53779); conditions: Compound concentration 1000.0 nM
[21] = target: Mitogen-activated protein kinase kinase kinase 3 (Homo sapiens) (UniProt Q99759); conditions: Compound concentration 1000.0 nM
[22] = target: MAP kinase-activated protein kinase 2 (Homo sapiens) (UniProt P49137); conditions: Compound concentration 1000.0 nM
[23] = target: MAP/microtubule affinity-regulating kinase 4 (Homo sapiens) (UniProt Q96L34); conditions: Compound concentration 1000.0 nM
[24] = target: Tyrosine-protein kinase Mer (Homo sapiens) (UniProt Q12866); conditions: Compound concentration 1000.0 nM
[25] = target: Serine/threonine-protein kinase mTOR (Homo sapiens) (UniProt P42345); conditions: Compound concentration 1000.0 nM
[26] = target: Muscle, skeletal receptor tyrosine-protein kinase (Homo sapiens) (UniProt O15146); conditions: Compound concentration 1000.0 nM
[27] = target: Myosin-IIIa (Homo sapiens) (UniProt Q8NEV4); conditions: Compound concentration 1000.0 nM
[28] = target: Serine/threonine-protein kinase 38-like (Homo sapiens) (UniProt Q9Y2H1); conditions: Compound concentration 1000.0 nM
[29] = target: Serine/threonine-protein kinase Nek4 (Homo sapiens) (UniProt P51957); conditions: Compound concentration 1000.0 nM
[30] = target: Serine/threonine-protein kinase Nek5 (Homo sapiens) (UniProt Q6P3R8); conditions: Compound concentration 1000.0 nM
[31] = target: Mitogen-activated protein kinase 12 (Homo sapiens) (UniProt P53778); conditions: Compound concentration 1000.0 nM
[32] = target: Phosphatidylinositol 4,5-bisphosphate 3-kinase catalytic subunit delta isoform (Homo sapiens) (UniProt O00329); conditions: Compound concentration 1000.0 nM
[33] = target: Serine/threonine-protein kinase pim-1 (Homo sapiens) (UniProt P11309); conditions: Compound concentration 1000.0 nM
[34] = target: Serine/threonine-protein kinase pim-2 (Homo sapiens) (UniProt Q9P1W9); conditions: Compound concentration 1000.0 nM
[35] = target: Phosphatidylinositol 4-phosphate 5-kinase type-1 alpha (Homo sapiens) (UniProt Q99755); conditions: Compound concentration 1000.0 nM
[36] = tested on: Proto-oncogene tyrosine-protein kinase receptor Ret (Homo sapiens), P07949 [V804M]; conditions: Compound concentration 1000.0 nM
[37] = target: Receptor-interacting serine/threonine-protein kinase 4 (Homo sapiens) (UniProt P57078); conditions: Compound concentration 1000.0 nM
[38] = target: Rho-associated protein kinase 1 (Homo sapiens) (UniProt Q13464); conditions: Compound concentration 1000.0 nM
[39] = target: Serine/threonine-protein kinase Sgk1 (Homo sapiens) (UniProt O00141); conditions: Compound concentration 1000.0 nM
[40] = target: NT-3 growth factor receptor (Homo sapiens) (UniProt Q16288); conditions: Compound concentration 1000.0 nM
[41] = target: Serine/threonine-protein kinase 32C (Homo sapiens) (UniProt Q86UX6); conditions: Compound concentration 1000.0 nM
[42] = target: Tyrosine-protein kinase ZAP-70 (Homo sapiens) (UniProt P43403); conditions: Compound concentration 1000.0 nM
[43] = target: 5-hydroxytryptamine receptor 3A (Homo sapiens) (UniProt P46098); conditions: Compound concentration 10.0 uM
[44] = target: Histamine H4 receptor (Homo sapiens) (UniProt Q9H3N8); conditions: Compound concentration 10.0 uM
[45] = target: Beta-3 adrenergic receptor (Homo sapiens) (UniProt P13945); conditions: Compound concentration 10.0 uM

Sequence of Calcium/calmodulin-dependent protein kinase type 1G (Homo sapiens) (Q96NX5 whole entry): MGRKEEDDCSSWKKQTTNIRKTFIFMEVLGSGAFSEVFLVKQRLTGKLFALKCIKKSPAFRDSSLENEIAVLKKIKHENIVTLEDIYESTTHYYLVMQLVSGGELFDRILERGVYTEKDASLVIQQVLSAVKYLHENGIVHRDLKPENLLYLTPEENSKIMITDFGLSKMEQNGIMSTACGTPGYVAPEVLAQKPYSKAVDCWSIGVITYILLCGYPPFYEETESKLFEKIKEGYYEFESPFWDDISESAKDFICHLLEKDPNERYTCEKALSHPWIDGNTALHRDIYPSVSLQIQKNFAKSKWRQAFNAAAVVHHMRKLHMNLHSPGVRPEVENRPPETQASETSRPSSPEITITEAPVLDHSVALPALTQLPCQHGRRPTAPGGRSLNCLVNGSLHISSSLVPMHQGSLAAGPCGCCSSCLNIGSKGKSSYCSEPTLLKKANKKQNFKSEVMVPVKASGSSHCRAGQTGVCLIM
Sequence of Serine/threonine-protein kinase DCLK2 (Homo sapiens) (Q8N568 whole entry): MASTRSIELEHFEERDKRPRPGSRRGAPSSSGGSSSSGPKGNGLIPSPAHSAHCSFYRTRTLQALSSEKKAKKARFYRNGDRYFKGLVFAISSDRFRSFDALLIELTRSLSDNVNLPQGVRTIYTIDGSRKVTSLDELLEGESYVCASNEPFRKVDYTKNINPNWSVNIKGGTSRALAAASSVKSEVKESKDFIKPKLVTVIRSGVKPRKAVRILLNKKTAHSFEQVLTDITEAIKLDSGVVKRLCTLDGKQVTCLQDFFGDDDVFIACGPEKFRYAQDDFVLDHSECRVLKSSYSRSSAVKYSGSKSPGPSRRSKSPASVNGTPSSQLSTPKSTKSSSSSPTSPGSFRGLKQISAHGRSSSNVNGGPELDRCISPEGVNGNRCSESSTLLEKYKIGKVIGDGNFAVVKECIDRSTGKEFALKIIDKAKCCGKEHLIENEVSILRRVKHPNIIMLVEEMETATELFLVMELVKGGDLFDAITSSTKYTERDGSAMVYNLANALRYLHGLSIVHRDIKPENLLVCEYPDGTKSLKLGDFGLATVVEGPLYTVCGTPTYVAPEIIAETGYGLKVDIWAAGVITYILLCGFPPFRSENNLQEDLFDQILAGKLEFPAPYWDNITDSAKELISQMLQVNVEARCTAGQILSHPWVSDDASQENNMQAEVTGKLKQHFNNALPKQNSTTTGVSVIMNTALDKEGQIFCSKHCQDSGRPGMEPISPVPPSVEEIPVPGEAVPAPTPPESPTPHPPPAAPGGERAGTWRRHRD
Sequence of MAP/microtubule affinity-regulating kinase 4 (Homo sapiens) (Q96L34 whole entry): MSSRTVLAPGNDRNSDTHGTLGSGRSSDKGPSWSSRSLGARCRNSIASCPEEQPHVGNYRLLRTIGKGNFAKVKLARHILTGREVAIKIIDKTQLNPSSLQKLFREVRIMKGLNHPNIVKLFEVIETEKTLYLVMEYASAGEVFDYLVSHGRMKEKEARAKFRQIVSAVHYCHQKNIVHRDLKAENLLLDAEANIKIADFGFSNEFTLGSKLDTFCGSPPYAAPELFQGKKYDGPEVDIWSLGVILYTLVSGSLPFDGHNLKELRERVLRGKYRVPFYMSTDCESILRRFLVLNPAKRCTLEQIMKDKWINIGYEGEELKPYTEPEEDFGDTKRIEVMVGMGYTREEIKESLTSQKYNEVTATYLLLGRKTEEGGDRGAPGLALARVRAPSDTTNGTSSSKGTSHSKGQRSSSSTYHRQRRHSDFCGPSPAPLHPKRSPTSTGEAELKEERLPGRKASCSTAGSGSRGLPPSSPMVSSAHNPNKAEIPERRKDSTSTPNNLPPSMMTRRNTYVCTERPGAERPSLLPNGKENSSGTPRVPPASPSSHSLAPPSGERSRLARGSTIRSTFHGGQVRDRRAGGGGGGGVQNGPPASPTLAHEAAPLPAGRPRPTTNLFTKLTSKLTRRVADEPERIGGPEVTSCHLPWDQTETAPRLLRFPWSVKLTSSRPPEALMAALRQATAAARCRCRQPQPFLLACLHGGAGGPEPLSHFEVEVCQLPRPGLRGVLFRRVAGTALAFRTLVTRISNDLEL
Sequence of Histamine H4 receptor (Homo sapiens) (Q9H3N8 whole entry): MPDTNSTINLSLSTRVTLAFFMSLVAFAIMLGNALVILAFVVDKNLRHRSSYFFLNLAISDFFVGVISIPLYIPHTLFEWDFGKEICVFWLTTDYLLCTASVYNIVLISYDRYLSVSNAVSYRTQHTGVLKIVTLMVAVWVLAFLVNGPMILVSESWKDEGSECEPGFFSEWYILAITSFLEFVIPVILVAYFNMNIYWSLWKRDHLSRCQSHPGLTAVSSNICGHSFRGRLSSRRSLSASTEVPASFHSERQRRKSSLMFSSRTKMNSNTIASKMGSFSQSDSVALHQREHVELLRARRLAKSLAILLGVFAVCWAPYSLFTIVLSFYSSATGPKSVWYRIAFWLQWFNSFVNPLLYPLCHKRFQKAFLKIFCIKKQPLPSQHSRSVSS
Sequence of Mitogen-activated protein kinase kinase kinase 3 (Homo sapiens) (Q99759 whole entry): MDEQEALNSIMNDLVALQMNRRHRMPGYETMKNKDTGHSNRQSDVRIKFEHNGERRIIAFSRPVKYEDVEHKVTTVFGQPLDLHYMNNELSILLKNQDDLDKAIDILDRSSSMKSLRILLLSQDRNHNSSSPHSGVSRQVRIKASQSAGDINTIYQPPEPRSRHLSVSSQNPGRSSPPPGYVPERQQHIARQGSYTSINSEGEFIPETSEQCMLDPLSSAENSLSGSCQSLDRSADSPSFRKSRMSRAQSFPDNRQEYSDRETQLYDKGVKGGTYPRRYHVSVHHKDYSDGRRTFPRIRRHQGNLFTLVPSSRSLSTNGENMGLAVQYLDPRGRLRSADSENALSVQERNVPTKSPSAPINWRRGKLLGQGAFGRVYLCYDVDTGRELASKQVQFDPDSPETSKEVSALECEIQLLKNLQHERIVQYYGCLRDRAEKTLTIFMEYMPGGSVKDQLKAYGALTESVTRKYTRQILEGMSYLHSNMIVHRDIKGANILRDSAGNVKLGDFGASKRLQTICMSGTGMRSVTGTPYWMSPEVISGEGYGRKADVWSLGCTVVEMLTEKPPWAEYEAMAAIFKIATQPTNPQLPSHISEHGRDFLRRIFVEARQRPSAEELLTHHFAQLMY
Sequence of Rho-associated protein kinase 1 (Homo sapiens) (Q13464 2-1354 limits assumed): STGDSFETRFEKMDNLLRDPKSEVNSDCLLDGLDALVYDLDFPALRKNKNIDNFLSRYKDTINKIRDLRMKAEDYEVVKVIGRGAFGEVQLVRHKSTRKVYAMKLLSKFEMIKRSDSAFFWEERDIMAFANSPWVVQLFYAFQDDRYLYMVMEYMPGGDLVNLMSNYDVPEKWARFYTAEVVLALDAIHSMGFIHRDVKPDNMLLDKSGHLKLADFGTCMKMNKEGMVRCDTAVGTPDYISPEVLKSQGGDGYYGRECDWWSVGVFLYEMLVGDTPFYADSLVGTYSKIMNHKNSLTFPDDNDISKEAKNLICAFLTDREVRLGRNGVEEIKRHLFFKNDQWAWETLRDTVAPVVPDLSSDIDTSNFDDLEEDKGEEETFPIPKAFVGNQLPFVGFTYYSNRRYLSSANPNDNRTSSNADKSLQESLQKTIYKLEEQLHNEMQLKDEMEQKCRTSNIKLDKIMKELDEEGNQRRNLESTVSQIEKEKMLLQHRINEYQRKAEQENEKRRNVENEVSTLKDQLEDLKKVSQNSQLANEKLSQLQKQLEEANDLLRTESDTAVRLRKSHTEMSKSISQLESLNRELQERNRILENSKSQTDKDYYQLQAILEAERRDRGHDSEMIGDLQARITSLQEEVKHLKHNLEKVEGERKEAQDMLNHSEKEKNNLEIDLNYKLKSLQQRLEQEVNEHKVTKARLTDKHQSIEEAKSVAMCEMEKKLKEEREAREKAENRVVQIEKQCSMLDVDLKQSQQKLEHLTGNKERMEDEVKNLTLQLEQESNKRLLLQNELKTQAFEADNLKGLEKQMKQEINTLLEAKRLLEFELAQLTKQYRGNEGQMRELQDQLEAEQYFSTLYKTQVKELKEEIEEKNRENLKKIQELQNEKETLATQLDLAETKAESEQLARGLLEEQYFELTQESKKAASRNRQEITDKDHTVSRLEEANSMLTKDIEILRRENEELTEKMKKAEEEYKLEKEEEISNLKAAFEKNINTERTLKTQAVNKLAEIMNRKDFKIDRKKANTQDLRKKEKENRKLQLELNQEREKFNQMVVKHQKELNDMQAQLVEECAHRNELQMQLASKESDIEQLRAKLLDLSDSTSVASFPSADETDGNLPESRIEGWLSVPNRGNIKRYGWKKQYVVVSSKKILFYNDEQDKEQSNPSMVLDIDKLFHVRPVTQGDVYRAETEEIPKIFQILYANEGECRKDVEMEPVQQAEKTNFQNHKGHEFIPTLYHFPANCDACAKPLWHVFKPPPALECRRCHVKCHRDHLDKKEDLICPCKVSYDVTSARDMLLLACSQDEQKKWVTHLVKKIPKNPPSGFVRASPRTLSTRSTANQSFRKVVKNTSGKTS
Sequence of Serine/threonine-protein kinase Sgk1 (Homo sapiens) (O00141 whole entry): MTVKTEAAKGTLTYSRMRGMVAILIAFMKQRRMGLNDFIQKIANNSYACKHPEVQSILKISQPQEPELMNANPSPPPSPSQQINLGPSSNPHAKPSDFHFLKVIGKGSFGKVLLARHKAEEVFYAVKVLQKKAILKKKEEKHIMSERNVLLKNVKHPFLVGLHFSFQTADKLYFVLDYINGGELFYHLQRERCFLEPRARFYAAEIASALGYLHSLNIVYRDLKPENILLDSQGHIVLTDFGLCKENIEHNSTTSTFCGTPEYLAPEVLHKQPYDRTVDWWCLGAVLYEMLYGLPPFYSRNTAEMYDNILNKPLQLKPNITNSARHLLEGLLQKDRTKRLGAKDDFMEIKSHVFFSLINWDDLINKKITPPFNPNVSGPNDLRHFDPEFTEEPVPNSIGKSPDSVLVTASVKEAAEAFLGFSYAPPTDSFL

CO[C@@H](C)c1c(Nc2ccc([C@@H](N(C)C(=O)C3CCS(=O)(=O)CC3)C(F)(F)F)cc2)cnc2cc(Cl)nn12 [NVS-MALT1-C]
inactive: residual activity [1] 98% | residual activity [2] 84% | residual activity [3] 100% | residual activity [4] 100% | residual activity [5] 91% | residual activity [6] 65% | residual activity [7] 81% | residual activity [8] 91% | residual activity [9] 84% | residual activity [10] 100% | residual activity [11] 100% | residual activity [12] 92% | residual activity [13] 95% | residual activity [14] 96% | residual activity [15] 100% | residual activity [16] 59% | residual activity [17] 100% | residual activity [18] 100% | residual activity [19] 97% | residual activity [20] 78% | residual activity [21] 100% | residual activity [22] 100% | residual activity [23] 89% | residual activity [24] 79% | residual activity [25] 100% | residual activity [26] 88% | residual activity [27] 100% | residual activity [28] 75% | residual activity [29] 90% | residual activity [30] 88% | residual activity [31] 92% | residual activity [32] 87% | residual activity [33] 100% | residual activity [34] 95% | residual activity [35] 89% | residual activity [36] 87% | residual activity [37] 100% | residual activity [38] 100% | residual activity [39] 89% | residual activity [40] 100% | residual activity [41] 82% | residual activity [42] 100% | inhibition [43] -1.2% | inhibition [44] -8.46% | inhibition [45] 12.9%

CO[C@@H](C)c1c(Nc2ccc([C@H](N(C)C(=O)C3CCS(=O)(=O)CC3)C(F)(F)F)cc2)cnc2cc(Cl)nn12 [NVS-MALT1]
inactive: residual activity [1] 100% | residual activity [2] 85% | residual activity [3] 66% | residual activity [4] 100% | residual activity [5] 99% | residual activity [6] 100% | residual activity [7] 84% | residual activity [8] 89% | residual activity [9] 91% | residual activity [10] 100% | residual activity [11] 100% | residual activity [12] 94% | residual activity [13] 90% | residual activity [14] 100% | residual activity [15] 100% | residual activity [16] 85% | residual activity [17] 100% | residual activity [18] 100% | residual activity [19] 100% | residual activity [20] 96% | residual activity [21] 73% | residual activity [22] 90% | residual activity [23] 76% | residual activity [24] 87% | residual activity [25] 100% | residual activity [26] 83% | residual activity [27] 100% | residual activity [28] 75% | residual activity [29] 90% | residual activity [30] 84% | residual activity [31] 98% | residual activity [32] 98% | residual activity [33] 88% | residual activity [34] 100% | residual activity [35] 100% | residual activity [36] 94% | residual activity [37] 76% | residual activity [38] 100% | residual activity [39] 94% | residual activity [40] 100% | residual activity [41] 99% | residual activity [42] 100% | inhibition [43] -6.2% | inhibition [44] 3.84% | inhibition [45] 15.4%
